Measurements: US12616753B2, “HSP70 inhibitors and methods of using same” (THE WISTAR INSTITUTE, priority 2020, dated 2026)

Tests used:
[1] = tested on: IMR90 and CCD 841 CoN cells; assay: Seahorse XF Cell Mito Stress Test, normal cells; format: cell-based, human; details: 500 nM (sublethal), 24 hours
Experimental: FIG. 2A: IMR90 cells (non-transformed fibroblasts), 1205Lu (melanoma), and HT-29 (CRC) cancer cells were treated with sub-lethal doses (500 nM) of the HSP70 inhibitors PET-16 (positive control) or AP-4-139B for 24 hours. Cells were then subjected to the Seahorse Mito Stress Test Assay. Injections were Oligomycin (1 μM, line A), FCPP (0.5-1 μM, line B), and Rotenone/Antimycin A (1 μM, line C). Each graphical representation indicates the mean±standard deviation of a minimum of 5 technical replicates. […] Each experiment was performed in triplicate and independently repeated twice. FIGS. 2B-2D: Basal Oxygen Consumption Rate (ORC) (FIG. 2B), Maximal OCR (FIG. 2C), and ATP production (FIG. 2D) were analyzed in IMR90 fibroblasts, non-transformed colonic epithelial cells (CCD 841 CoN), 1205Lu melanoma cells and HT-29 CRC cells, in the presence or absence of 500 nM HSP70 inhibitors or negative control (VY-3-277). All experiments were performed in triplicate, with each group containing 5-6 technical replicates. ** p<0.01, *** p<0.001, n.s. not significant.
The XF Cell Mito Stress Test was performed. […] For extracellular ATP release, ATP was measured using the CellTiter-Glo Kit (Promega catalog #G7570). […] 10 μl of CellTiter-Glo Reaction Mix was then mixed with 10 μl of culture media; the luminescence signal was detected using a luminometer.

[2] = tested on: CRC cell lines (HT-29, LS411N, and SW620); assay: Trypan Blue exclusion viability assay, CRC cell lines; format: cell-based, human; details: 10 μM, 48 hours
Experimental: FIGS. 4A-4F show AP-4-139B is efficacious as a single agent against human CRC in vitro and in vivo. FIG. 4A: Three CRC cell lines (HT-29, LS411N, and SW620) were treated with 10 μM of PET-16 or AP-4-139B for 48 hours. Cell were then subjected to viability assays using Trypan Blue exclusion. *** p<0.001. […] FIGS. 4B-4C: A panel of six CRC cell lines (SW620, HT-29, HCT 116+/−p53, RKO, and LS411N) were plated at a density of 1,000 cells per well in 96-well plates. The next day, cells were treated with the indicated inhibitors for 72 hours. Cells were then subjected to the Alamar Blue cell viability assays. Shown are representative IC50 values of an average of six technical replicates and two biological replicates. FIG. 4D: 2.5×10^6 HT-29 cells were injected subcutaneously into the right flank of NSG mice. Once tumors reached an approximate volume of 100 mm^3, mice were separated randomly into two groups: control vs. AP-4-139B. Mice were treated with 12.5 mg/kg AP-4-139B three times a week. All mice were euthanized 22 days after the start of treatment. Tumor volumes were recorded using digital calipers and using the formula v=length×width^2×0.52. *** p<0.001. n=10 mice per group. FIG. 4E: Immunohistochemistry (IHC) analysis of HT-29 xenograft tumors treated with AP-4-139B. […]

SMILES	mitochondrial function in normal cells [1]	decrease of CRC cell viability [2]
C(#C[P+](c1ccccc1)(c1ccccc1)c1ccccc1)c1ccccc1 [PET-16, Triphenyl(phenylethynyl)phosphonium bromide, reference compound]	largely unaffected	modest ability to decrease CRC cell viability
c1ccc(-c2cn3nc(CCCCCC[P+](c4ccccc4)(c4ccccc4)c4ccccc4)sc3n2)cc1 [AP-4-139B, Triphenyl(6-(6-phenylimidazo[2,1-b][1,3,4]thiadiazol-2-yl)hexyl)phosphonium bromide]	largely unaffected	markedly more cytotoxic
